Measurements from patent US20260335300A1, “Synthetic Nicotine Analogue Formulation For Nicotine Replacement and Amplication” (priority 2023, published 2026).

Assays:
[1] = background statement, cited from earlier work; for satisfaction and 'throat-hit' sensation: novel tobacco products; for satisfaction in oral and nasal products: novel oral and nasal nicotine products
[2] = Chemical stability in air / exposure to atmosphere for 24 hours, discoloration, blending; format: physicochemical
[3] = Solubility in appropriate solvents; format: physicochemical; settings: in the appropriate solvents
mice [4] = settings: mouse, in vivo
mice [5] = settings: comparison value; cited from earlier work
rats [6] = settings: comparison value; cited from earlier work
rats [7] = settings: acute oral
in vivo = settings: rat, po

## CN1CCCC1c1cccnc1 (racemic) [racemic nicotine]
[1]
  satisfaction and 'throat-hit' sensation: does not induce the distinctive satisfaction and ‘throat-hit’ sensation

## COC(=O)C1=CCCN(C)C1 [arecoline]
[1]
  satisfaction in oral and nasal products: limited satisfaction due to a lack of satisfactory sensations
  satisfaction and 'throat-hit' sensation: lack of satisfaction and ‘throat-hit’ sensation

## Cc1ccc([C@@H]2CCCN2C)cn1 [(S)-6-Methylnicotine, (S)-2-methyl-5-(1-methylpyrrolidin-2-yl)pyridine]
[2]; degradation and discoloration
  chemical stability compared to nicotine: more chemically stable than nicotine, and resists degradation and discoloration
[2]; in the air, versus nicotine, may potentially
  lifetime in the air relative to nicotine: ≤ 5 times
[2]; versus nicotine, blended with other compounds
  stability when blended with other compounds: more stable than nicotine when blended with other compounds
[2]; versus nicotine, may
  resistance to higher temperatures: may be able to resist higher temperatures
[3]
  solubility: acceptable for all of the aforementioned applications
In words
  relief from cravings / subjective hit sensation: induces a subjective “hit” sensation which satisfies cravings
preliminary, versus nicotine
  onset of action compared to nicotine: may be faster acting
Mice [4]
  reduction of oral toxicity versus nicotine: ~3 order of magnitude
Mice [4]; po
  toxicity compared to nicotine, in words: both less toxic, and can be used in lower amounts than nicotine

## Cc1ccc([C@H]2CCCN2C)cn1 [(R)-6-Methylnicotine, reference compound]
enantiomer, no test described
  efficacy as nicotine analogue and flavor: not effective as a nicotine analogue, and contributes to unpleasant flavors

## CN1CCCC1c1cccnc1 (stereo not drawn) [nicotine]
[2]; exposed to atmosphere for 24 hours
  yellowing on exposure to atmosphere: yellowing was observed sooner than (S)-6-Methylnicotine
Mice [5]
  acute oral LD50 of nicotine: about 3.3 mg/kg BW
Rats [6]
  acute oral LD50 of nicotine: 50 mg/kg

## Cc1ccc([C@@H]2CCCN2C)cn1.O=C(O)c1ccccc1 [(S)-6-Methylnicotine benzoate]
Rats [7]; equivalent effective use basis
  reduction in toxicity versus nicotine on an equivalent effective use basis: 2 order of magnitude
Rats [7]; versus nicotine
  toxicity relative to nicotine: half to one quarter as toxic
In vivo
  LD50: 120 to 215 mg/kg

## O=c1cccc2n1C[C@@H]1CNC[C@H]2C1 [cytisine]
[1]
  satisfaction in oral and nasal products: limited satisfaction due to a lack of satisfactory sensations
  satisfaction and 'throat-hit' sensation: lack of satisfaction and ‘throat-hit’ sensation
